A short description of series [1]: LNCaP cell-based peptide stability assay. The class given is in vitro ADME. As to conditions: human, LNCaP cells, HPLC, read-out: T½ LNCaP cells (converted). Here is the method:
(§1) LNCaP cell-based stability assays were performed in Poly-(L)lysine coated 96-wells plates seeded at a density of 1,500 cells/wells. 100 μg of peptides were added 24 hours after plating without media change. Media was collected and mixed with 5 μL of trifluororacetic acid 5% to stop peptide degradation. Ex vivo plasmatic stability assays were performed as previously described. Briefly, compounds (0.5 μg/μL) were incubated with CD1 mouse plasma from mixed-sex animals collected with heparin sodium (Novi, USA). Reaction was stop by addition of 150 μL guanidine HCl and 300 μL of acetonitrile and peptides were extracted by centrifugation. For both in vitro and ex vivo stability assays, peptide stability was assessed from reverse phase HPLC and percentage of remaining peptide was calculated from area under curve and normalized to time 0.

Series [2] relates to LNCaP xenograft. The series can be described thus: LNCaP xenograft, systemic (iv) administration. As to conditions: daily 2 mg/kg iv; similar in control group. The class given is in vivo, Nu/Nu male mice. Here is the method: For tumor implantation, trypsin-harvested LNCaP cell suspension was mixed with equal volume of matrigel (BD Biosciences, Bedford, MA) on ice and subcutaneously injected (200 μL) at 4 different sites (left/right hip and left/right shoulder) on Nu/Nu male mice (Charles River Laboratories, LaSalle, Canada) at density of 2 million cells/site. Tumors were periodically measured and the tumor volumes were calculated from the equation: Length•width^2•π/6. When tumors were fully formed and palpable, mice were divided into treatment groups. For intratumoral administration of the compound, 20 μL of peptides (2.5 μg/μL) or vehicle (5% Dimethyl sulfoxide in sterile saline) was administered directly into the tumor at interval of 48 hours. For intra-venous administration experiments, 100 μL of peptide solution (2 mg/kg) or vehicle (saline) was administered through tail vein at interval of 24 hours. The total tumor volume per animal was normalized using the following formula: (total tumor volume/total tumor volume at day 27 × 100). Blood sampling (50–75 μL) from saphenous vein was performed weekly and plasma was stored at −80°C for Prostate-specific antigen (PSA) serum levels determination using a PSA EIA assay (ClinPro International, USA). Mice were housed under pathogen-free conditions and manipulations were performed in a biosafety cabinet. […]

Series [3] has as its system LNCaP prostate cancer cell line. The class given is cell-based. As to conditions: 72 h. Here is the method: (§2) Cell lines were obtained from ATCC and maintained in RPMI-1640 5% FBS (DU145) and 10% FBS (LNCaP). For MTT proliferation assays, peptides were added 24 hours after seeding in 96-well plates as previously described and incubated 72 hours prior to addition of MTT reagent (Sigma-Aldrich, Canada) at final concentration of 1 mg/mL [21, 22]. Formazan salt was solubilized with 100 μL Isopropanol: HCl (24:1N) and metabolic activity was normalized relatively to vehicle-treated cells (Sterile bidistilled water). IC50 were determined using Prism 5.0 (GraphPad Software, USA).

Series [4] concerns DU145 prostate cancer cell line. The series is classed as cell-based. Conditions: 72 h. As to the method:
as §2

Series [5] is described as follows: Pharmacokinetic assay, intravenous 2 mg/kg, LC-MS/MS. The series is classed as in vivo. Conditions: mouse, plasma, CD1 mice; for AUC: read-out: AUC calculated; for half-life: read-out: Half-life (in vivo plasma); for Vd: read-out: Volume of distribution. As to the method:
To determine pharmacokinetic profiles of peptides, a single dose of 2 mg/kg was administered into systemic circulation from tail vein of CD1 mice (n = 4 animal/peptide). Blood was micro sampled on individual mouse at time 2.5, 5, 10, 20, 30 and 60 minutes. Plasma was collected by centrifugation and proteins were cleared from plasma using acetonitrile precipitation and supernatant was filtered using 0.2 μm PVDF centrifugal device (Canadian Life Science, Canada). Sample were analysed at PhenoSwitch Bioscience (Sherbrooke, Canada) by LC-MS/MS on a TripleTOF 5600 mass spectrometer (ABSciex, USA) equipped with DuoSpray source. Further information on mass spectrometry analyses and parameters used are presented in supplementary material.

Series [6] is described as follows: Ex vivo plasmatic stability assay. The class given is in vitro ADME. Conditions: both sexes, CD1; ex vivo mouse plasma; read-out: T½ plasma (converted). As to the method: as §1
On the set-up of series [7]: method as in Kwiatkowska et al [22]. Conditions: ex vivo mouse plasma; ref Kwiatkowska et al [22]; cited from earlier work.
Series [8] concerns the target T1, human recombinant and soluble PACE4 (Homo sapiens, UniProt P29122).
T1 construct: made in house; host or cells: S2 insect cells (Drosophila Schneider 2)
T1 sequence (P29122 150-969): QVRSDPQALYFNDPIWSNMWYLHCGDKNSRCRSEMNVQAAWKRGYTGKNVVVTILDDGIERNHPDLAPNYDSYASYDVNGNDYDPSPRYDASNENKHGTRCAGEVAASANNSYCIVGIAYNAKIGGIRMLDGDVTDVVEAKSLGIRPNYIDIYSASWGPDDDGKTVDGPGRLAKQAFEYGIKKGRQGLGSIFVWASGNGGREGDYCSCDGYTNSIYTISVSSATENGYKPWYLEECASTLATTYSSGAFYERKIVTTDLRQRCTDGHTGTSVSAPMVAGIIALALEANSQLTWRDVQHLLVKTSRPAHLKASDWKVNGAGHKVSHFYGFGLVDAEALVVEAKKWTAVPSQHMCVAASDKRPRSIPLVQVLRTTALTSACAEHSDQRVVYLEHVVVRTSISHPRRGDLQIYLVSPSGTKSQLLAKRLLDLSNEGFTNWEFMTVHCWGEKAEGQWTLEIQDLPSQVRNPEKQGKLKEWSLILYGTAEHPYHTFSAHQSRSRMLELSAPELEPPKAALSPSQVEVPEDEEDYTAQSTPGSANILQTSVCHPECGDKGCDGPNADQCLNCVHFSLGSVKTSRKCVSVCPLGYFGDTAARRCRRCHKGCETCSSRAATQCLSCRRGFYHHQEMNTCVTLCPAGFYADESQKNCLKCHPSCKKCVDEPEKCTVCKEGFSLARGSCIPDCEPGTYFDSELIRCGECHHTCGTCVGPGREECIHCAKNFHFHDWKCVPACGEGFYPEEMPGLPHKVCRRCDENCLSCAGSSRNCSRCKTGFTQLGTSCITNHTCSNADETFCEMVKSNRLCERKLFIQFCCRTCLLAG
As to conditions: ref Kwiatkowska et al [22]; cited from earlier work.

The test system of series [9] is DU145 prostate cancer cell line. As to conditions: MTT assay; ref Kwiatkowska et al [22]; cited from earlier work. In general terms: Formazan colour is commonly taken as a measure of viable cells.
For series [10], the system named is LNCaP xenograft. The series can be described thus: LNCaP xenograft, intratumoral administration. The series is classed as in vivo, Nu/Nu male mice. As to conditions: intra-tumoral, 50 μg/tumor per 48 h; vehicle 400 ± 100%. As to the method:
For tumor implantation, trypsin-harvested LNCaP cell suspension was mixed with equal volume of matrigel (BD Biosciences, Bedford, MA) on ice and subcutaneously injected (200 μL) at 4 different sites (left/right hip and left/right shoulder) on Nu/Nu male mice (Charles River Laboratories, LaSalle, Canada) at density of 2 million cells/site. Tumors were periodically measured and the tumor volumes were calculated from the equation: Length•width^2•π/6. When tumors were fully formed and palpable, mice were divided into treatment groups. For intratumoral administration of the compound, 20 μL of peptides (2.5 μg/μL) or vehicle (5% Dimethyl sulfoxide in sterile saline) was administered directly into the tumor at interval of 48 hours. For intra-venous administration experiments, 100 μL of peptide solution (2 mg/kg) or vehicle (saline) was administered through tail vein at interval of 24 hours. […] Blood sampling (50–75 μL) from saphenous vein was performed weekly and plasma was stored at −80°C for Prostate-specific antigen (PSA) serum levels determination using a PSA EIA assay (ClinPro International, USA). Mice were housed under pathogen-free conditions and manipulations were performed in a biosafety cabinet. All experimental procedures were in accordance with the Canadian Council on Animal Care.

Series [11] relates to LNCaP prostate cancer cell line. Conditions: MTT assay; ref Kwiatkowska et al [22]; cited from earlier work.
The target of series [12] is T1, human recombinant and soluble PACE4. The series can be described thus: Enzymatic assay, inhibition constant toward PACE4. The class given is biochemical. As to the method:
Inhibition constants (Ki) were determined using human recombinant and soluble PACE4 and furin produced in S2 insect cells and purified as previously described. The enzymatic assays were performed as described.

Read-outs that look alike come from different tables or passages of the source. Where a SMILES comes first, the peptide text is derived from it. [ ]: non-standard residue; d: D form. The star is where a group is joined. NOTA = O=C(O)CN1CCN(CC(=O)O)CCN(CC(=O)*)CC1; NH(4-amidinobenzyl) = N=C(N)c1ccc(CN*)cc1

As a reminder, the IC50 is the point on the concentration scale where inhibition reaches its midpoint. For orientation: clearance means a measure of how efficiently the substance is removed, as volume per time. High values mean a high capacity for elimination, low ones a low capacity for elimination. What is called AUC is the area under the concentration-time curve, a measure of exposure.

`CC(=O)N[C@H](CC(C)C)C(=O)N[C@@H](CC(C)C)C(=O)N[C@@H](CC(C)C)C(=O)N[C@@H](CC(C)C)C(=O)N[C@@H](CCCNC(=N)N)C(=O)N[C@H](C(=O)N[C@@H](CCCCN)C(=O)NCc1ccc(C(=N)N)cc1)C(C)C` [Ac-[DLeu]LLLRVK-Amba] (Ac-[dL]LLLRVK-{NH(4-amidinobenzyl)}): in series [1], the half-life is over 72 h. This compound had a body weight loss in the series on LNCaP xenograft [2] of 10%. For the same compound, half-maximal inhibition in [3] (IC50) required 40 ± 10 µM. For the same compound, in series [4], the half-inhibitory concentration (IC50) was found to be 25 ± 10 µM. In [5], the clearance turned out to be 0.5 ± 0.1 mL/min, the AUC was 2170 ng·h/mL, the half-life came out at 9 ± 3 min and the Vd turned out to be 0.006 ± 0.004 L. Besides, in series [6], the half-life at 0.5 μg/μL is 18 ± 3 h.

As to `CC(=O)N[C@@H](CC(C)C)C(=O)N[C@@H](CC(C)C)C(=O)N[C@@H](CC(C)C)C(=O)N[C@@H](CC(C)C)C(=O)N[C@@H](CCCN=C(N)N)C(=O)N[C@H](C(=O)N[C@@H](CCCCN)C(=O)NCc1ccc(C(=N)N)cc1)C(C)C` [Ac-LLLLRVK-Amba] (Ac-LLLLRVK-{NH(4-amidinobenzyl)}), in [7], the T½ plasma is recorded as 12 ± 2 h. Moreover, in series [1], the half-life is over 72 h.

Consider `CC(=O)N[C@H](CC(C)C)C(=O)N[C@@H](CC(C)C)C(=O)N[C@@H](CC(C)C)C(=O)N[C@@H](CC(C)C)C(=O)N[C@@H](CCCNC(=N)N)C(=O)N[C@H](C(=O)N[C@@H](CCCCN)C(=O)N[C@@H](CCCNC(=N)N)C(N)=O)C(C)C` [Ac-[DLeu]LLLRVKR-NH2], for which, in series [7], the T½ plasma was 8 ± 1 h. The half-life in series [1] was 38 ± 8 h. For the same compound, the “Ki PACE4” value in series [8] was 0.023 ± 0.001 µM.

Turning to `CC(=O)N[C@@H](CC(C)C)C(=O)N[C@@H](CC(C)C)C(=O)N[C@@H](CC(C)C)C(=O)N[C@@H](CC(C)C)C(=O)N[C@@H](CCCNC(=N)N)C(=O)N[C@H](C(=O)N[C@@H](CCCCN)C(=O)NCc1ccc(C(=N)N)cc1)C(C)C` [Ac-LLLLRVK-Amba] (Ac-LLLLRVK-{NH(4-amidinobenzyl)}), the results for the half-inhibitory concentration (IC50) in [9] and in [11] were 25 ± 10 µM and 40 ± 15 µM, respectively. The “mean tumoral volume at day 59 compared to day 25” value in the series on LNCaP xenograft [10] was determined as 100 ± 30%.

With Ac-LLLLRVKR-NH2 [Ac-LLLLRVKR-NH2], the T½ plasma in series [7] is 5.1 ± 0.8 h. For the same compound, the half-life in series [1] is 21 ± 2 h. Also, in [5], the clearance turned out to be 0.6 ± 0.1 mL/min, the area under the curve (AUC) is 1670 ng·h/mL, the half-life is 8 ± 5 min and the Vd is 0.008 ± 0.007 L.

For the compound `CC(C)C[C@H](NC(=O)[C@H](CC(C)C)NC(=O)[C@H](CC(C)C)NC(=O)[C@@H](CC(C)C)NC(=O)CN1CCN(CC(=O)O)CCN(CC(=O)O)CC1)C(=O)N[C@@H](CCCNC(=N)N)C(=O)N[C@H](C(=O)N[C@@H](CCCCN)C(=O)NCc1ccc(C(=N)N)cc1)C(C)C` [NOTA-[DLeu]LLLRVK-Amba] ({NOTA}-[dL]LLLRVK-{NH(4-amidinobenzyl)}), in series [12], the “Ki PACE4” value came to 0.006 ± 0.002 µM.

Values taken from paper PMC4414146, “PACE4 inhibitors and their peptidomimetic analogs block prostate cancer tumor progression through quiescence induction, increased apoptosis and impaired neovascularisation” (Oncotarget, 2015).
